Measurements from patent US9999218B2, “Pest control formulations and methods of making and using same” (0903608 B.C. Ltd., priority 2011, dated 2018).
Like-named read-outs stand apart in the source and are kept apart here.

What was measured:
adult bed bugs [1] = type: in vivo; conditions: […] neem oil + […] named solvent in isopropanol, 4 h dried residue
adult bed bugs [2] = test system: adult bed bugs
Procedure: This example illustrates the dry residual pesticidal activity of formulations comprising varying pesticidal natural oils (oregano, clove and cinnamon oils) with acetophenone as the polar aromatic solvent. Solutions were prepared using 5.5% by weight natural oil; the percent by weight of acetophenone indicated in Table 19 and an appropriate amount of isopropanol as a carrier diluent. The percent by weight of solvent was at a final concentration of 1.5 mol/kg. Solutions were also prepared of each natural oil alone (5.5% by weight with an appropriate amount of isopropanol as a carrier diluent), and of acetophenone alone (the percent by weight indicated in Table 19 with an appropriate amount of isopropanol as a carrier diluent). Treated Groups for each solution were prepared by treating filter paper, 90 mm in diameter, with 1.0 mL of solution and allowing it to air dry for four hours. A known number of adults (usually 10) were added to each treated dish, four hours after treatment. Bed bug mortality was assessed immediately after infestation and at 1-hour, 2-hour, 4-hour, 6-hour, 8-hour, 10 hour, 12-hour, and 24-hour intervals, and at 24-hour intervals thereafter until 14 days after infestation. Adult bed bugs were counted dead if they were unresponsive when stimulated.

bed bug eggs [3] = type: in vivo, Cimex lectularius L.; conditions: […] neem oil + named solvent in isopropanol; 4 h dried residue; 3 weeks after infestation
Description: Immediately after infestation, and at 1-, 2-, and 3-week intervals thereafter, the numbers of hatched and unhatched eggs present in the sealed dishes were counted and compared to other Treated Groups. One egg was counted as “hatched” for every new nymph present in the petri dish when compared with the prior interval. Table 13 compares the % egg eclosion of the treated groups at the 3-week observation interval. The maximum mortality data obtained in Example 3, above, are included for comparison purposes.

adult bed bugs [4] = test system: adult bed bugs; remark: listed apart in the source
Procedure: This example illustrates the dry residual pesticidal activity of formulations comprising further pesticidal natural oils (thyme, garlic and neem oils) with acetophenone as the polar aromatic solvent. Solutions were prepared using 5.5% by weight natural oil; the percentage by weight of organic solvent indicated in Table 20 and an appropriate amount of isopropanol as a carrier diluent. Solvent was added to a final concentration of 1.5 mol/kg. Solutions were also prepared of each natural oil alone (5.5% by weight with an appropriate amount of isopropanol as a carrier diluent), and of the polar organic solvent alone (the percent by weight indicated in Table 20 with an appropriate amount of isopropanol as a carrier diluent). Treated Groups for each solution were prepared by treating filter paper, 90 mm in diameter, with 1.0 mL of solution and allowing it to air dry for four hours. A known number of adults (usually 10) were added to each treated dish, four hours after treatment. Bed bug mortality was assessed immediately after infestation and at 1-hour, 2-hour, 4-hour, 6-hour, 8-hour, 10 hour, 12-hour, and 24-hour intervals, and at 24-hour intervals thereafter until 14 days after infestation. Adult bed bugs were counted dead if they were unresponsive when stimulated.

adult bed bugs [5] = conditions: for LT50: 2 h dried residue on filter paper; for Max Mortality: 2 h dried residue, observed until 33 days
Procedure: 1.0 mL of each solution was applied to three replicates of filter paper, 90 millimeters in diameter, contained in petri dishes (Treated Groups). Treated Groups and three replicates of an untreated Control Group were allowed to dry for two hours prior to infestation with a known number of adult bed bugs (approximately half male and half female).
Bed bug mortality was assessed immediately after infestation and at 2-, 4-, 8-, 12-, and 24-hour intervals after infestation, and daily thereafter until 33 days after infestation. Adult bed bugs were counted dead if they were unresponsive when stimulated.

bed bug eggs [6] = assay: Prevention of egg emergence by various pesticidal natural oils (Example 11); type: in vivo, Cimex lectularius L.; conditions: for % Eclosion (3 weeks post-infest.): 2 h dried residue, five eggs
Procedure: Five bed bug eggs were added to each treated dish, two hours after treatment. Immediately after infestation, and at 1-, 2-, and 3-week intervals thereafter, the numbers of hatched and unhatched eggs present in the sealed dishes were counted and compared to other Treated Groups. One egg was counted as “hatched” for every new nymph present in the petri dish when compared with the prior interval. Table 12 compares the mean % egg eclosion of the treated groups at three weeks post-infestation. The maximum mortality data obtained in Example 2, above, are included for each formulation, for comparison purposes.

[7] = 4 h dried residue on filter paper
[8] = […] by weight oil and/or 18.25% w/w acetophenone in isopropanol, 4 h dried residue on filter paper
[9] = time of maximum mortality, 4 h dried residue on filter paper
[10] = […] oil + 5.0% acetophenone + […] sodium lauryl sulphate in water
[11] = […] oil + 5.0% ethyl lactate + […] sodium lauryl sulphate in water

Compound: CC(=O)c1ccccc1 [Acetophenone]
- Time to Max Mortality (adult bed bugs [1]): 24 h
- Max. Mortality (adult bed bugs [1]; observed until 14 days): 100%
- LT50 (adult bed bugs [2]; [7]): 17 h
- Max Mortality (adult bed bugs [2]; [8]): 100%
- Time (adult bed bugs [2]; [9]): 53 h
- % Eclosion (bed bug eggs [3]): 0%
- LT50 (adult bed bugs [4]; [7]): 11 h
- Max Mortality (adult bed bugs [4]; [8]): 100%
- Time (adult bed bugs [4]; [9]): 48 h

Compound: C=CCc1ccc(O)c(OC)c1 [Eugenol]
- LT50 (adult bed bugs [5]; [10]): 2.82 h
- Max Mortality (adult bed bugs [5]; [10]): 100%
- LT50 (adult bed bugs [5]; [11]): 9.91 h
- Max Mortality (adult bed bugs [5]; [11]): 100%
- prevention of egg eclosion (bed bug eggs [6]; […] by weight oil with 5.0% acetophenone, all observation intervals): some increased prevention of egg emergence
- % Eclosion (3 weeks post-infest.) (bed bug eggs [6]; […] oil + 5.0% acetophenone in water): 20%
- % Eclosion (3 weeks post-infest.) (bed bug eggs [6]; […] oil + 5.0% ethyl lactate in water): 40%
- prevention of egg eclosion (bed bug eggs [6]; […] oil combined with 15.5% acetophenone by weight): complete prevention of egg eclosion

Compound: Cinnamon Oil
- Max Mortality (adult bed bugs [2]; in vivo): 90%
- Max Mortality (adult bed bugs [4]; in vivo): 100%
